These results are taken from patent publication US20140212493A1, “Highly Bioavailable Composition Containing Eprosartan - Poloxamer Complex or 2-(7-Chloro-5-Methyl-4-Oxo-3-Phenyl-4,5-Dihydro-3H-Pyridazine (4,5-b)Indol-1-yl)-N,N-Dimethylacetamide - Poloxamer Complex” (BVM Holding Co., priority 2003, published 2014).

Where a name gives a salt, the structure may show the parent alone.

A short description of data set [1]: Dissolution of EPM and EPM-poloxamer complexes, USP apparatus II, SGF. It counts as physicochemical. The note with it: equivalent to 400 mg dose, SGF without pepsin, 37° C., 25 rpm. How it is done:
(§1) The dissolution rate of the association complex may be carried out using a suitable solvent such as 0.1 N HCl purified water, or simulated gastric fluid, as dissolution medium. The testing is conducted under conditions intended to simulate ingestions at about 37° C. and from about 25 to about 75 rpm. The dissolution may be tested using any method known in the art such as USP apparatus I (a basket apparatus) or USP apparatus II (a paddle apparatus) (USP 27/NF 22, 2004, <711>, page 2303). Samples of the solution are taken at preselected intervals such as at every fifteen minutes up to one hour.
Lutrol F-68, 1.0 gm, and EPM, 1.0 gm, are mixed in a jacketed vessel (KG5) heated to 53° C. while mixing for about 2 hrs. The resulting complex, in the form of free flowing granules, thus formed is allowed cool to room temperature and sieved through a 40 mesh screen. The dissolution of the complex equivalent to the 400 mg dose is determined using USP apparatus II, 900 ml of SGF (simulated gastric fluid without pepsin) as the dissolution medium at 37° C. and 25 rpm.
The dissolution of the complex equivalent to a 400 mg dose is determined using USP apparatus II, in SGF as the dissolution medium at 37° C. and 25 rpm.

Data set [2] can be described thus: Dissolution of NZ and NZ-poloxamer complex, USP apparatus II, purified water. The format is physicochemical. The note with it: equivalent to 20mg drug, 1000 ml purified water, 37° C., 75 rpm. As for the experimental part:
as §1
Lutrol F-68 and NZ, 250 mg are mixed in a jacketed vessel (KG 5) and heated to 53° C. while mixing for about 2 hours. The resulting complex thus formed is allowed to cool to room temperature and sieved through a 40 mesh screen. The dissolution of the complex equivalent to 20mg drug is determined using USP apparatus II, 1000 ml of purified water as the dissolution medium at 37° C. and 75 rpm.

In the case of `CCCCc1ncc(/C=C(\Cc2cccs2)C(=O)O)n1Cc1ccc(C(=O)O)cc1` [EPM, eprosartan mesylate], the “% DISSOLVED” value was 38.7% in data set [1] (15 minutes), 51.9% in data set [1] (30 minutes), 61.3% in data set [1] (45 minutes) and 61.7% in data set [1] (60 minutes).
Consider `CN(C)C(=O)Cc1nn(-c2ccccc2)c(=O)c2c1c1ccc(Cl)cc1n2C` [NZ, 2-(7-chloro-5-methyl-4-oxo-3-phenyl-4,5 dihydro-3H-pyridazino (4,5-b)-indol-1-yl)-N,N-dimethylacetamide], for which the “% DISSOLVED” value in data set [2] (15 minutes) turned out to be 0.65%; in data set [2] (30 minutes) it was 1.90%; in data set [2] (45 minutes), 2.53%; in data set [2] (60 minutes), 3.14%.
